Results: paper PMC10301922, “Anti-Oxidant, Anti-Mutagenic Activity and Safety Evaluation of Antrocin” (Toxics, 2023)
Where two headings read alike, the source gives them in different places.

How the values were obtained:
[1] = tested on: Salmonella typhimurium TA100
[2] = tested on: Salmonella typhimurium TA98
[3] = tested on: Salmonella typhimurium TA1535; test: Antimutagenicity test, TA1535
[4] = tested on: Salmonella typhimurium TA98; test: Ames test (plate incorporation), TA98; settings: TA98, with S9, positive reagent 5 μg/plate
[5] = tested on: Salmonella typhimurium TA102; test: Ames test (plate incorporation), TA102; settings: TA102, with S9, positive reagent 5 μg/plate
[6] = tested on: Salmonella typhimurium TA1535; test: Ames test (plate incorporation), TA1535; settings: TA1535, with S9, positive reagent 5 μg/plate
[7] = tested on: Salmonella typhimurium TA1537; test: Ames test (plate incorporation), TA1537; settings: TA1537, with S9, positive reagent 5 μg/plate
Sprague Dawley rats [8] = settings: rat, in vivo, po, 7.5 mg/kg
Sprague Dawley rats [9] = settings: rat, in vivo, po, 7.5 mg/kg; remark: listed apart in the source
Sprague Dawley rats [10] = settings: rat, in vivo, po, 7.5 mg/kg; remark: listed apart in the source
Sprague Dawley rats [11] = settings: rat, in vivo, 7.5 mg/kg
Wistar rats = tested on: Wistar rats; set-up: method as in earlier work; settings: 28-day oral; cited from earlier work
CHO-K1 cells = settings: with S9 (3 h), 25 μg/mL, positive control
Protocol: A chromosomal aberration test was performed to evaluate the potential for antrocin to induce structural chromosomal abnormalities in Chinese hamster ovary cells (CHO-K1 cells). The test followed the protocol in Genetic Toxicology Testing: A Laboratory Manual. CHO-K1 cells were obtained from the Bioresource Collection and Research Center (BCRC), and were cultured in Ham F-12 medium with 10% fetal bovine serum and 0.1% Penicillin–Streptomycin at 5% CO2 in a 37 °C incubator. […] Three experimental conditions were conducted: 3 h with and without S9 (short term), and 19 h without S9 (long term). […] CHO-K1 cells were cultured in 25T flasks, incubated with samples for 3 or 19 h with and without S9, and harvested at the time of 1.5 cell cycle lengths (about 21 h). Two hours before harvesting, 100 μL colcemid (10 μg/mL) was added to disrupt cell mitosis. Collected cells were then treated with 0.6% KCl solution and fixed with acetic acid–methanol (1:3) solution. After fixation, cells were stained with Diff-Quik on a glass slide. A total of 300 cells in metaphase per group were observed, and the number of chromosomal aberrations was recorded. The chromosomal aberration rate (%) was calculated using the following formula: (number of cells with aberrations/total number of cells examined) × 100. A Student’s t-test was used for statistical analysis, and a significant increase (p < 0.05) compared to the negative control indicated a positive response.

ICR male mice = test: In vivo mammalian erythrocyte micronucleus test; settings: for Mn-RETs/1000RETs (‰) / RETs/1000RBCs (‰): 60 mg/kg bw ip; for frequencies of micronuclei: positive control group (60 mg/kg ip)
[12] = female, Sprague Dawley, po, 28 days
[13] = male, Sprague Dawley, po, 28 days

Nc1ccc2cc3ccccc3cc2c1 [2-AA, 2-aminoanthracene, reference compound]
Number of Revertant ([1]; TA100, with S9, positive reagent 5 μg/plate): 2099.7 ± 145.5 Colony/Plate | reverse mutants, times more than the negative control group ([2]; TA98, with S9, 25 μg/plate): about 275 times | Number of Revertant ([2]; TA98, with S9, positive reagent alone 25 μg/plate): 6055.0 ± 661.0 Colony/Plate | reverse mutants, times more than the negative control group ([3]; TA1535, with S9, 25 μg/plate): about 23 times | Number of Revertant ([3]; TA1535, with S9, positive reagent alone 25 μg/plate): 270.3 ± 7.5 Colony/Plate | Number of Revertant [4]: 1881.3 ± 434.2 Colony/Plate | Number of Revertant [5]: 1532.0 ± 204.2 Colony/Plate | Number of Revertant [6]: 535.0 ± 138.6 Colony/Plate | Number of Revertant [7]: 269.0 ± 21.9 Colony/Plate

CNC(=O)c1cc(Oc2ccc(NC(=O)Nc3ccc(Cl)c(C(F)(F)F)c3)cc2)ccn1 [Sorafenib, sorafenib]
BASO (Sprague Dawley rats [8]): 0.1 ± 0.1% | GGT (Sprague Dawley rats [9]): <1 U/L | TB (Sprague Dawley rats [9]): <0.1 mg/dL | Brain (Sprague Dawley rats [10]): 2.0 ± 0.1 g | Adrenal gland: Congestion, cortex, focal, slight; incidence (Sprague Dawley rats [11]; [12]): 1/5 | Bone, femur: Hypertrophy, epiphysis, diffuse, slight to moderate/severe; incidence (Sprague Dawley rats [11]; [12]): 5/5 | Kidney: Cast, tubule, focal, slight; incidence (Sprague Dawley rats [11]; [12]): 1/5 | Kidney: Infarct, tubule, focal, slight; incidence (Sprague Dawley rats [11]; [12]): 1/5 | Ovary: Increase, follicle, multifocal, moderate to moderate/severe; incidence (Sprague Dawley rats [11]; [12]): 4/4 | Adrenal gland: Congestion, cortex, multifocal, slight; incidence (Sprague Dawley rats [11]; [13]): 1/5 | Bone marrow, femur: Hypocellularity, diffuse, slight to moderate/severe; incidence (Sprague Dawley rats [11]; [13]): 3/5 | Bone marrow, sternum: Hypocellularity, diffuse, moderate; incidence (Sprague Dawley rats [11]; [13]): 3/5 | Bone, femur: Hypertrophy, epiphysis, diffuse, slight to moderate/severe; incidence (Sprague Dawley rats [11]; [13]): 5/5 | Epididymis: Granuloma, spermatic, focal, moderate; incidence (Sprague Dawley rats [11]; [13]): 1/5 | Heart: Infiltration, mononuclear cell, focal, minimal to slight; incidence (Sprague Dawley rats [11]; [13]): 1/5 | Kidney: Cast, tubule, focal, minimal; incidence (Sprague Dawley rats [11]; [13]): 3/5 | Spleen: Atrophy, red pulp, diffuse, slight to moderate; incidence (Sprague Dawley rats [11]; [13]): 5/5 | Salivary gland, Sublingual lobe: histopathological lesions (Sprague Dawley rats [11]): - | Aorta: histopathological lesions (Sprague Dawley rats [11]; po): - | Cervix: histopathological lesions (Sprague Dawley rats [11]; po): - | Coagulative gland: histopathological lesions (Sprague Dawley rats [11]; po): - | Esophagus: histopathological lesions (Sprague Dawley rats [11]; po): - | Eyes: histopathological lesions (Sprague Dawley rats [11]; po): - | Harderian gland: Infiltration, mononuclear cell, focal, minimal; incidence (Sprague Dawley rats [11]; po): - | Harderian gland: histopathological lesions (Sprague Dawley rats [11]; po): - | Heart: histopathological lesions (Sprague Dawley rats [11]; po): - | Intestine, large, Caecum: histopathological lesions (Sprague Dawley rats [11]; po): - | Intestine, large, Colon: histopathological lesions (Sprague Dawley rats [11]; po): - | Intestine, large, Rectum: histopathological lesions (Sprague Dawley rats [11]; po): - | Intestine, small, Duodenum: histopathological lesions (Sprague Dawley rats [11]; po): - | Intestine, small, Ileum: histopathological lesions (Sprague Dawley rats [11]; po): - | Intestine, small, Jejunum: histopathological lesions (Sprague Dawley rats [11]; po): - | Kidney: Cyst, tubule, focal, slight; incidence (Sprague Dawley rats [11]; po): - | Liver: Fatty change, multifocal, slight; incidence (Sprague Dawley rats [11]; po): - | Liver: histopathological lesions (Sprague Dawley rats [11]; po): - | Lung: histopathological lesions (Sprague Dawley rats [11]; po): - | Lymph node, Cervical: histopathological lesions (Sprague Dawley rats [11]; po): - | Lymph node, Mesenteric: histopathological lesions (Sprague Dawley rats [11]; po): - | Lymph node: histopathological lesions (Sprague Dawley rats [11]; po): - | Mammary gland: histopathological lesions (Sprague Dawley rats [11]; po): - | Optic nerve: histopathological lesions (Sprague Dawley rats [11]; po): - | Oviduct: histopathological lesions (Sprague Dawley rats [11]; po): - | Pancreas: histopathological lesions (Sprague Dawley rats [11]; po): - | Parathyroid gland: histopathological lesions (Sprague Dawley rats [11]; po): - | Pituitary: histopathological lesions (Sprague Dawley rats [11]; po): - | Prostate gland: Infiltration, mononuclear cell, focal, minimal to slight; incidence (Sprague Dawley rats [11]; po): - | Salivary gland, Mandibular lobe: histopathological lesions (Sprague Dawley rats [11]; po): - | Salivary gland: histopathological lesions (Sprague Dawley rats [11]; po): - | Sciatic nerve: histopathological lesions (Sprague Dawley rats [11]; po): - | Seminal vesicle: histopathological lesions (Sprague Dawley rats [11]; po): - | Skeletal muscle: histopathological lesions (Sprague Dawley rats [11]; po): - | Skin: histopathological lesions (Sprague Dawley rats [11]; po): - | Spinal cord: histopathological lesions (Sprague Dawley rats [11]; po): - | Spleen: histopathological lesions (Sprague Dawley rats [11]; po): - | Stomach: histopathological lesions (Sprague Dawley rats [11]; po): - | Testis: histopathological lesions (Sprague Dawley rats [11]; po): - | Thymus: histopathological lesions (Sprague Dawley rats [11]; po): - | Thyroid gland: histopathological lesions (Sprague Dawley rats [11]; po): - | Tongue: histopathological lesions (Sprague Dawley rats [11]; po): - | Trachea: histopathological lesions (Sprague Dawley rats [11]; po): - | Urinary bladder: histopathological lesions (Sprague Dawley rats [11]; po): - | Uterus: histopathological lesions (Sprague Dawley rats [11]; po): - | Vagina: histopathological lesions (Sprague Dawley rats [11]; po): - | dose above which abnormality was found (clinical observation, hematology, biochemistry, histopathology) (Wistar rats): above 25 mg/kg

[N-]=[N+]=[N-].[Na+] [sodium azide, reference compound]
Number of Revertant ([1]; TA100, without S9, positive reagent 5 μg/plate): 2223.0 ± 53.2 Colony/Plate | reverse mutants, times more than the negative control group ([3]; TA1535, without S9, 5 μg/plate): about 122 times | Number of Revertant ([3]; TA1535, without S9, positive reagent alone 5 μg/plate): 1313.0 ± 42.0 Colony/Plate

O=P1(N(CCCl)CCCl)NCCCO1 (stereo not drawn) [Cyclophosphamide, cyclophosphamide, reference compound]
Frequency of Chromosomal Aberration (%) (CHO-K1 cells): 15.3 ± 2.3% | Total Aberrations (CHO-K1 cells): 46/300 | Mn-RETs/1000RETs (‰) (ICR male mice; 48 h): 22.9 ± 12.2 ‰ | RETs/1000RBCs (‰) (ICR male mice; 48 h): 3.6 ± 2.1 ‰ | frequencies of micronuclei (ICR male mice; 48 h): 3.6 ± 2.1 ‰ | Mn-RETs/1000RETs (‰) (ICR male mice; 72 h): 6.8 ± 3.7 ‰ | RETs/1000RBCs (‰) (ICR male mice; 72 h): 3.9 ± 2.1 ‰ | frequencies of micronuclei (ICR male mice; 72 h): 3.9 ± 2.1 ‰
